Assay results as given in patent US8153803B2, “Compositions and methods for modulating sirtuin activity” (The General Hospital Corporation, priority 2006, dated 2012).

Key:
[1] = system: α-synuclein aggregates; experiment: α-Synuclein aggregation phenotype in cells; type: cell-based; details: correlated with functional rescue
[2] = system: HeLa cells; experiment: Cell-based SIRT2 inhibition (α-tubulin acetylation, Western blot); parameters: species or system human
Experimental: Tubulin and sirtuin Western blot analysis: Samples were separated on 10% polyacrylamide gels and transferred to a 0.45 μm PVDF membrane (Millipore, Bedford Mass.). Membranes were blocked with a 5% milk solution in PBST. Blots were then probed with antibodies to either SIRT2 (Santa Cruz A-5 at 1:100), tubulin (Sigma, St. Louis Mo., B-5-1-2) or acetylated tubulin (Sigma, 6-11B-1), both at 1:5000. Secondary detection was performed using an HRP-conjugated anti-mouse antibody (Sigma) at 1:4000, and exposed using an ECL detection kit (PerkinElmer). […] The following morning, medium was removed and fresh medium containing compound was added to the wells. After 3 hours, medium was removed and cells were washed 3× with PBS. After the final wash, 100 μL of a hypotonic lysis buffer was added to each well, and the cells were lysed at 37° C. for 5 minutes. The lysates were transferred to eppendorf tubes and centrifuged at 16,000×g for 10 minutes at room temperature. The resulting supernatant contained soluble tubulin monomers, while the pellet contained the insoluble microtubule polymers. […] SDS sample buffer was added to all the samples, followed by Western blot analysis.

[3] = target: T1, SIRT1 (Homo sapiens, UniProt Q96EB6); experiment: Fluorescent SIRT enzyme assay (recombinant enzyme, fluorescent peptide substrate); type: biochemical; details: at compound concentrations of 40 μM or higher
T1 sequence (Q96EB6 1-747): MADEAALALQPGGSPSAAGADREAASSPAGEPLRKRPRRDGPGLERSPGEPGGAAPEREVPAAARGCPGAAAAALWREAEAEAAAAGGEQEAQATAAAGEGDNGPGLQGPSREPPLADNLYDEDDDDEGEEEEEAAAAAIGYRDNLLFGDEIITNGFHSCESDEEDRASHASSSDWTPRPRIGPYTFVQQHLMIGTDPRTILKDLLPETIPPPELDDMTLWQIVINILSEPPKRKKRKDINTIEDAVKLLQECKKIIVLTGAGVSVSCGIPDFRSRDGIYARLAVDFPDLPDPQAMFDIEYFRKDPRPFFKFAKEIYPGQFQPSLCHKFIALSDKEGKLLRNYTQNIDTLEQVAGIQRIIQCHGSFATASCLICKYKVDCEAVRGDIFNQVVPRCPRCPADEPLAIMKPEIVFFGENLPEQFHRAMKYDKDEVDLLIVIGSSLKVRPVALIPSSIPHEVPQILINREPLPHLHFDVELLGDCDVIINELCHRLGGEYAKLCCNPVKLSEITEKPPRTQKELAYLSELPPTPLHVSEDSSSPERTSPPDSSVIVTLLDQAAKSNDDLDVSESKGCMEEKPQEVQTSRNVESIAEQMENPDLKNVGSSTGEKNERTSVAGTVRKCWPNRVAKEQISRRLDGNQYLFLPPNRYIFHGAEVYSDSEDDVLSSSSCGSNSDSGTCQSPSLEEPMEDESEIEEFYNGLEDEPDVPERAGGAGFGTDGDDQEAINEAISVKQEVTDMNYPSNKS

[4] = system: H4 neuroglioma cells transfected with α-synuclein; experiment: α-Synuclein toxicity assay (adenylate kinase release, ToxiLight); type: cell-based, human; details: H4 cells overexpressing α-synuclein
Experimental: Cell culture and transfection: HeLa cells were cultured in DMEM supplemented with 10% fetal bovine serum (FBS) and 2 mM L-glutamine. Human H4 neuroglioma cells (“H4 cells” HTB-148 from the American Type Culture Collection (ATCC), Manassas, Va., USA) were maintained in OPTI-MEM (Life Technologies, Grand Island, N.Y., USA) supplemented with 10% FBS. H4 cells were passaged 24 hours prior to transfection and plated in 24-well plates. The cells were transfected, using a pcDNA3.1hygro vector (Invitrogen) and […] (Qiagen, Chatsworth, Calif., USA) according to the manufacturer's instructions. Compounds or DMSO were added after the transfection procedure was concluded.
α-Synuclein toxicity assay: Toxicity was analyzed 24 hours after transfection by measuring the release of adenyate kinase from damaged cells into the culture medium using the ToxiLight™ kit (Cambrex, Walkersville, Md.) according to the manufaturer's protocol.

[5] = system: α-synuclein aggregates; details: previously identified (WO 05/087217); cited from earlier work
[6] = target: T2, SIRT2 (Homo sapiens, UniProt Q8IXJ6); experiment: Fluorescent SIRT enzyme assay (recombinant enzyme, fluorescent peptide substrate); type: biochemical
T2 construct: purchased Biomol (Plymouth Meeting, Pa.)
T2 sequence (Q8IXJ6 1-389): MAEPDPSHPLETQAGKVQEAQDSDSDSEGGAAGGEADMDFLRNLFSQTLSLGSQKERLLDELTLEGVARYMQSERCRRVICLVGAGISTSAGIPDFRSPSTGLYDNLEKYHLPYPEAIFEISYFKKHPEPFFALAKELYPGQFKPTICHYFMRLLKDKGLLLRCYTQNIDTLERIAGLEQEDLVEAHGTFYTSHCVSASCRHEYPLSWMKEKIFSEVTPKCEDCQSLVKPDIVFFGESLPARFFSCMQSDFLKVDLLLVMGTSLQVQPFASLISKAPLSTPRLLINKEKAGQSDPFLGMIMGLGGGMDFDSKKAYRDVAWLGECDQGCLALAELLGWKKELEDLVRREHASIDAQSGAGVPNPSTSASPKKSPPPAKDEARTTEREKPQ

[7] = system: H4 neuroglioma cells transfected with α-synuclein; details: previously identified (WO 05/087217); cited from earlier work

SMILES	α-synuclein aggregates / inclusion size [1]	acetylation of α-tubulin in compound-treated cells [2]	inhibition of SIRT1 [3]	rescue of α-synuclein toxicity [4]	α-synuclein aggregates / inclusions [5]	IC50 ([6]; recombinant SIRT2, fluorescent peptide substrate, read-out: IC50 against SIRT2) [µM]	selectivity for SIRT2 ([6]; versus other sirtuins tested (SIRT1, SIRT3))	inhibition of α-synuclein-mediated cellular toxicity [7]
N#C/C(=C\c1ccc(-c2cc(Cl)ccc2Cl)o1)C(=O)Nc1cccc2ncccc12 [AGK2]	formation of large inclusions, while reducing number of small aggregates	increasing the acetylation of α-tubulin	slightly inhibits	can rescue α-synuclein toxicity				
O=C(Nc1cccc([N+](=O)[O-])c1)c1cccc(S(=O)(=O)N2CCCCCC2)c1 [AK-1, 3-(azepane-1-sulfonyl)-N-(3-nitro-phenyl)-benzamide]	increased inclusion size			prevented some α-synuclein toxicity				
O=[N+]([O-])c1ccc(Sc2nnc(COc3ccccc3)n2-c2ccccc2)c2cccnc12 [B2]					decrease in the number of small α-synuclein aggregates and the formation of large inclusions	35	selective inhibition of SIRT2	inhibits α-synuclein-mediated cellular toxicity
